Values joined by “and” are separate entries in the source; they are usually repeats but may differ in a detail not shown here. Equal entries are not always repeated.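 Growth conditions: 96-well plates. Treatment: test compound, 48 hours, 5 concentrations. Analysis: linear interpolation between bracketing concentrations; unreached endpoints set to highest concentration. The concentration for 50% growth inhibition is given as GI50. Definition used: TGI = concentration required for complete inhibition of growth.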
Experiments:
Assay in all cases: NCI-60 cell line screen, 48 h
RXF 393 renal = tested on: RXF 393 renal
HCT-15 colon = tested on: HCT-15 colon
LXFL 529 NSCLC = tested on: LXFL 529 NSCLC
EKVX NSCLC = tested on: EKVX NSCLC
HOP-18 NSCLC = tested on: HOP-18 NSCLC
DMS 114 small cell lung = tested on: DMS 114 small cell lung
NCI-H226 lung = tested on: NCI-H226 lung
SNB-78 CNS = tested on: SNB-78 CNS
HT29 colon = tested on: HT29 colon
DMS 273 small cell lung = tested on: DMS 273 small cell lung
XF 498 CNS = tested on: XF 498 CNS
SR leukemia = tested on: SR leukemia
HS 578T breast = tested on: HS 578T breast

| SMILES | TGI (RXF 393 renal) | TGI (HCT-15 colon) | TGI (LXFL 529 NSCLC) | TGI (EKVX NSCLC) | TGI (HOP-18 NSCLC) | TGI (DMS 114 small cell lung) | TGI (NCI-H226 lung) | TGI (SNB-78 CNS) | TGI (HT29 colon) | TGI (DMS 273 small cell lung) | TGI (XF 498 CNS) | TGI (SR leukemia) | GI50 (HCT-15 colon) | GI50 (EKVX NSCLC) | TGI (HS 578T breast) | GI50 (SR leukemia) | GI50 (NCI-H226 lung) | GI50 (HT29 colon) | GI50 (RXF 393 renal) | GI50 (HS 578T breast) |
| --- | --- | --- | --- | --- | --- | --- | --- | --- | --- | --- | --- | --- | --- | --- | --- | --- | --- | --- | --- | --- |
| COc1ccc(C(=O)C(c2ccc(OC)cc2)C2(O)C(=O)Nc3c2ccc(Cl)c3C)cc1 (centres undefined) | > 100 µM | > 100 µM | > 100 µM | > 100 µM | > 100 µM | > 100 µM | > 100 µM | > 100 µM | > 100 µM | – | – | – | – | – | – | – | – | – | – | – |
| COc1ccc2ccccc2c1C1OC(=O)c2ccccc21 (centres undefined) | – | > 100 µM | – | > 100 µM | > 100 µM | > 100 µM | > 100 µM | > 100 µM | > 100 µM | > 100 µM | – | – | – | – | – | – | – | – | – | – |
| COc1ccc(OC)c(NC(=O)CCC/C(CC(=O)c2ccc(O)c(OC)c2)=N\Nc2ccc([N+](=O)[O-])cc2)c1 | 78.6 µM | > 100 µM | > 100 µM | > 100 µM | > 100 µM | > 100 µM | > 100 µM | > 100 µM | > 100 µM | > 100 µM | > 100 µM | > 100 µM | – | – | – | – | – | – | – | – |
| COc1cc(C2C(Cl)C(=O)N2NC(=O)c2ccc(N)cc2)ccc1O (centres undefined) | – | > 100 µM | 30.8 µM | > 100 µM | – | – | > 100 µM | > 100 µM | 45.8 µM | > 100 µM | 83.6 µM | – | – | – | – | – | – | – | – | – |
| COc1ccc(/C=C\c2cc(OC)c(OC)c(OC)c2)cc1OC | > 100 µM | 40.4 µM and > 100 µM | 3.14 µM | 40.4 µM and > 100 µM | 40.4 µM | – | – | 40.4 µM | 31.4 µM | – | 0.401 µM | 0.277 µM and 0.0612 µM | 0.0595 µM | 0.333 µM | 68 µM | 0.0204 µM | 0.297 µM | 0.043 µM | – | – |
| CCOC(=O)NC(=O)c1cn(CCCCCCOC(=O)NCCCCCCNC(=O)OCCCCCCn2cc(C(=O)NC(=O)OCC)c(=O)[nH]c2=O)c(=O)[nH]c1=O | > 100 µM | > 100 µM | > 100 µM | > 100 µM | > 100 µM | > 100 µM | > 100 µM | – | > 100 µM | > 100 µM | – | – | – | – | – | – | – | – | – | – |
| O=S1(=O)OCCOS(=O)(=O)C1Cc1ccccc1 | > 100 µM | – | – | > 100 µM | 50 µM | > 100 µM | > 100 µM | > 100 µM | > 100 µM | > 100 µM | > 100 µM | > 100 µM | – | – | – | – | – | – | – | – |
| COC(=O)CCC(NC(=S)N/N=C/c1ccco1)C(=O)OC (centres undefined) | > 100 µM | > 100 µM | > 100 µM | > 100 µM | > 100 µM | > 100 µM | > 100 µM | > 100 µM | > 100 µM | > 100 µM | > 100 µM | > 100 µM | – | – | – | – | – | – | – | – |
| COC(=O)C1=CC2C(=O)OC1CC2C#N (centres undefined) | – | – | > 100 µM | – | > 100 µM | > 100 µM | > 100 µM | > 100 µM | > 100 µM | > 100 µM | > 100 µM | > 100 µM | – | – | – | – | – | – | – | – |
| O=C(c1ccccc1)c1cccc(C(=O)c2ccccc2)c1 | > 100 µM | – | > 100 µM | > 100 µM | > 100 µM | > 100 µM | > 100 µM | > 100 µM | > 100 µM | > 100 µM | > 100 µM | > 100 µM | – | – | – | – | – | – | – | – |
| CC(=O)C1C(=O)C(=O)N(c2ccccc2C(C)C)C1=O (centres undefined) | > 100 µM | > 100 µM | > 100 µM | > 100 µM | > 100 µM | – | > 100 µM | > 100 µM | > 100 µM | – | > 100 µM | – | – | – | – | – | – | – | – | – |
| CC1=C2C(=CC(C)(C)C2O)C(=O)C(C)(O)C12CC2 (centres undefined) | 0.0194 µM | 0.151 µM | 0.114 µM | 0.144 µM | 0.179 µM | 0.0281 µM | 0.152 µM | 0.226 µM | 0.0311 µM | 0.025 µM | 0.0309 µM | 0.128 µM | – | – | – | – | – | – | – | – |
| C[C@]12CCC3[C@@H](CC[C@@H]4c5nonc5CC[C@]34C)C1C/C(=N/O)C2=O (some centres undefined) | > 100 µM | > 100 µM | > 100 µM | > 100 µM | > 100 µM | > 100 µM | > 100 µM | > 100 µM | > 100 µM | > 100 µM | 40.4 µM | – | – | – | – | – | – | – | – | – |
| C[Si](C)(C)c1ccc(-c2sc(-c3ccc([Si](C)(C)C)s3)c3c2C[Si]2(C3)Cc3c(-c4ccc([Si](C)(C)C)s4)sc(-c4ccc([Si](C)(C)C)s4)c3C2)s1 | > 100 µM | > 100 µM | > 100 µM | – | – | – | > 100 µM | > 100 µM | > 100 µM | > 100 µM | > 100 µM | > 100 µM | – | – | – | – | – | – | – | – |
| CN(/N=C/c1cccc2cccnc12)c1ccccc1 | > 100 µM | > 100 µM | > 100 µM | > 100 µM | > 100 µM | > 100 µM | > 100 µM | > 100 µM | > 100 µM | > 100 µM | > 100 µM | – | – | – | – | – | – | – | – | – |
| COc1ccc(C(C#N)Cc2cc(OC)c(OC)c(OC)c2)cc1 (centres undefined) | 45.2 µM | > 100 µM | > 100 µM | > 100 µM | > 100 µM | 63.4 µM | > 100 µM | > 100 µM | > 100 µM | > 100 µM | – | – | – | – | – | – | – | – | – | – |
| N#CC(c1nc2ccccc2nc1Cl)S(=O)(=O)c1ccccc1 (centres undefined) | – | > 100 µM | > 100 µM | > 100 µM | – | > 100 µM | > 100 µM | 94.4 µM | – | > 100 µM | > 100 µM | > 100 µM | – | – | – | – | – | – | – | – |
| CC[C@H](CO)Nc1nc(NCc2ccccc2)n2ncc(C(C)C)c2n1 | 0.792 µM | 10.5 µM | – | 9.13 µM | – | – | 10.1 µM | – | 15.5 µM | – | – | 1.59 µM | 0.872 µM | 2.41 µM | 6.16 µM | 0.249 µM | 1.84 µM | 2 µM | 0.25 µM | 1.59 µM |
| CS[C@]12C(=O)C[C@@]3(C)[C@@H](CC[C@]3(O)C(=O)CO)[C@@H]1CCC1=CC(=O)CC[C@@]12C | > 100 µM | > 100 µM | – | > 100 µM | – | – | > 100 µM | – | > 100 µM | – | – | > 100 µM | – | – | > 100 µM | – | – | – | – | – |
| Cc1[nH]c2ccccc2c1C1Cc2ccccc2N1C(=O)/C=C/C(=O)O (centres undefined) | > 100 µM | 33 µM | > 100 µM | > 100 µM | – | > 100 µM | > 100 µM | > 100 µM | > 100 µM | > 100 µM | > 100 µM | > 100 µM | – | – | – | – | – | – | – | – |
| CN1c2ccccc2N(C)C23N(C)c4ccccc4N(C)C12N(C)c1ccccc1N3C (centres undefined) | > 100 µM | > 100 µM | – | > 100 µM | – | > 100 µM | > 100 µM | – | > 100 µM | > 100 µM | > 100 µM | – | – | – | – | – | – | – | – | – |
